Test results reported in patent publication US9249125B2, “Pyrazole derivatives as p38 MAP inhibitors” (RESPIVERT LIMITED, priority 2012, dated 2016).

What was measured:
cSrc = cSrc (Homo sapiens (Human), UniProt P12931); experiment: c-Src enzyme inhibition (FRET, Z-LYTE); type: biochemical
Summary of the method: (§1)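 Z-LYTE FRET kinase assay: enzyme (3000 or 2000 ng/mL stock, respectively) preincubated 2 h at RT with compound (4–0.004 μg/mL stocks), then FRET peptide plus ATP (800 μM stock for c-Src, 60 μM for Syk) added for 1 h. Protease development 1 h; phosphorylation from coumarin/fluorescein emission ratio.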

[1] = test system: Poly I:C-induced ICAM-1 expression in BEAS2B cells; experiment: Poly I:C-induced ICAM-1 expression in BEAS2B cells; type: cell-based; settings: Homo sapiens, BEAS-2B, read-out: Poly IC induced ICAM1 in BEAS2B IC50
Summary of the method: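 Cell-based ELISA read at 450 nm minus 655 nm, divided by crystal violet OD595 to normalize for cell number, gave ICAM-1 levels. Readout was taken 18 hr after poly I:C (1 μg/mL, Oligofectamine) transfection of human bronchial BEAS2B cells pretreated 2 hr with test compound.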

p38 MAPKα = p38 MAPKα (Homo sapiens (Human), UniProt Q16539); experiment: p38 MAPKα enzyme inhibition (FRET, Z-LYTE); type: biochemical
p38 MAPKα, sequence (Q16539 whole entry): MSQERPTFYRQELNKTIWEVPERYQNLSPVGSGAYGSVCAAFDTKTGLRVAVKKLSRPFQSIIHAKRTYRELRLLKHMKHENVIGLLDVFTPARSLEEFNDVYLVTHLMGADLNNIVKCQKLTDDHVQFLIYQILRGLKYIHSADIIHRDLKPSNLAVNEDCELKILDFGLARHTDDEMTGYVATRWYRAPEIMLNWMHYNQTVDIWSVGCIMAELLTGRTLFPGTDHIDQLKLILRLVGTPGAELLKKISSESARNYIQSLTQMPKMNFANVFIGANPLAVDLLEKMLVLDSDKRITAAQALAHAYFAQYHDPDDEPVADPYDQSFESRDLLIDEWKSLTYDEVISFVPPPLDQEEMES

GSK3α = GSK3α (Homo sapiens (Human), UniProt P49840); experiment: GSK 3α enzyme inhibition (FRET, Z-LYTE); type: biochemical
GSK3α, sequence (P49840 whole entry): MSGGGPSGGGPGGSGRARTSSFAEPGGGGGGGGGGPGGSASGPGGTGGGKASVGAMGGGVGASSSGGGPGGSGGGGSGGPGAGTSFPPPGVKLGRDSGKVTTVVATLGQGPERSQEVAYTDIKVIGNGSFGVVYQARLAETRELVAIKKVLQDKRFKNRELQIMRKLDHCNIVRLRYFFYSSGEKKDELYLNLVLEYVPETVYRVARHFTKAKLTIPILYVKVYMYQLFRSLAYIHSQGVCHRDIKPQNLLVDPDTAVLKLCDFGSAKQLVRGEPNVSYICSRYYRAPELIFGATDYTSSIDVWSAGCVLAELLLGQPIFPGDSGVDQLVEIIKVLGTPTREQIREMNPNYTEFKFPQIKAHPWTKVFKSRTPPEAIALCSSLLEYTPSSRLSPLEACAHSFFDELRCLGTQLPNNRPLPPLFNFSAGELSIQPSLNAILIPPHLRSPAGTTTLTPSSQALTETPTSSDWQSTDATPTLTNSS
Summary of the method: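 Phosphorylation was read as the donor (coumarin) to acceptor (fluorescein) ratio after a 1 hr protease step destroying non-phosphorylated peptide. Before this, compound (4–0.004 μg/mL stocks) sat 2 hr at RT with GSK3α (500 ng/mL stock), followed by 1 hr kinase reaction with 8 μM peptide and 40 μM ATP stocks.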

d-U937 cells = experiment: Cell viability: MTT assay; type: cell-based, human; settings: 1 μg/mL
Summary of the method: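 MTT read-out (1 h, absorbance 550 nm) on d-U937 cells after pre-incubation with 1 or 10 μg/mL compound under two regimes: 4 h, 5% FCS, or 24 h, 10% FCS RPMI1640. Values are percent loss of viability relative to vehicle (0.5% DMSO), so increases are reported as negative.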

[2] = test system: LPS-induced TNFα release in d-U937 cells; experiment: LPS-induced TNFα release in d-U937 cells; type: cell-based; settings: Homo sapiens, dU937, relative to 10 μg/mL BIRB796, read-out: LPS Induced Release of Cytokine in d-937 Cells TNFα REC50
Summary of the method: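 PMA-differentiated (100 ng/mL, 48–72 hr) U937 cells pre-incubated with compound 2 hr, then stimulated with LPS (0.1 μg/mL, E. coli O111:B4) for 4 hr. Supernatant TNFα and IL-8 measured by sandwich ELISA; inhibition versus vehicle control, REC50 from concentration-response curve.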

[3] = test system: LPS-induced IL-8 release in d-U937 cells; experiment: LPS-induced IL-8 release in d-U937 cells; type: cell-based; settings: Homo sapiens, dU937, read-out: LPS Induced Release of Cytokine in d-937 Cells IL-8 IC50
Summary of the method: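 Read-out: TNFα and IL-8 released into supernatant, sandwich ELISA, expressed as inhibition versus vehicle at each dose and fitted to give REC50. Cells were PMA-differentiated U937 (100 ng/mL, 48–72 hr), compound-exposed 2 hr before a 4 hr LPS stimulus (0.1 μg/mL).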

Syk = Syk (Homo sapiens (Human), UniProt P43405); experiment: Syk enzyme inhibition (FRET, Z-LYTE); type: biochemical
Summary of the method: as §1

cSrc, sequence (P12931 whole entry, looked up): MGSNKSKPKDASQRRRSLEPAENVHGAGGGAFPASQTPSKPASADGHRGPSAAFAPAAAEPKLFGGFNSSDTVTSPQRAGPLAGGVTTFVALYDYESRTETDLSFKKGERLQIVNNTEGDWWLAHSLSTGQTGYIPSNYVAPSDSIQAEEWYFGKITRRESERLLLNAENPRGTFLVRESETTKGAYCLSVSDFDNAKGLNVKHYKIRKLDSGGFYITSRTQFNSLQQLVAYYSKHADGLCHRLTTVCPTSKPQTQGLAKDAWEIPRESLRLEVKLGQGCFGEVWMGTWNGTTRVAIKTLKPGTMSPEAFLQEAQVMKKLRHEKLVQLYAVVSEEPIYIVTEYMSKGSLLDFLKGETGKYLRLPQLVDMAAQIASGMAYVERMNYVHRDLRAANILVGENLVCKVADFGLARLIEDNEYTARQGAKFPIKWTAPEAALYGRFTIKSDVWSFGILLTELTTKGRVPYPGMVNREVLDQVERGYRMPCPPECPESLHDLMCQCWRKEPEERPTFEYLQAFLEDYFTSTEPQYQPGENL

Structure (SMILES) | IC50 (cSrc) [nM] | IC50 [1] [nM] | IC50 (p38 MAPKα) [nM] | IC50 (GSK3α) [nM] | MTT Assay Cell viability at time point in d-U937 cells 4 h (d-U937 cells) | MTT Assay Cell viability at time point in d-U937 cells 24 h (d-U937 cells) | EC50 [2] [nM] | IC50 [3] [nM] | IC50 (Syk) [nM]
COc1ccc(-n2nc(C(C)(C)C)cc2NC(=O)Nc2ccc(Oc3ccnc(Nc4ccc5[nH]ccc5c4)n3)c3ccccc23)cc1 [Example 38, 1-(4-((2-((1H-indol-5-yl)amino)pyrimidin-4-yl)oxy)naphthalen-1-yl)-3-(3-(tert-butyl)-1-(4-methoxyphenyl)-1H-pyrazol-5-yl)urea] | 10 | 2.5 | 184 | > 1560 | −ve (−ve and +ve indicate that the value is below and above respectively, the no significant effect threshold, defined as 30% inhibition at 1 μg/mL at the time point indicated.) | −ve (−ve and +ve indicate that the value is below and above respectively, the no significant effect threshold, defined as 30% inhibition at 1 μg/mL at the time point indicated.) | 1.8 | 1.1 | 26
COc1ccc(-n2nc(C(C)C)cc2NC(=O)Nc2ccc(Oc3cc(Nc4ccc5[nH]ncc5c4)ncn3)c3ccccc23)cc1 [Example 39, 1-(4-((6-((1H-indazol-5-yl)amino)pyrimidin-4-yl)oxy)naphthalen-1-yl)-3-(3-isopropyl-1-(4-methoxyphenyl)-1H-pyrazol-5-yl)urea] | 11 | 160 | 10 | > 16000 | −ve (−ve and +ve indicate that the value is below and above respectively, the no significant effect threshold, defined as 30% inhibition at 1 μg/mL at the time point indicated.) | −ve (−ve and +ve indicate that the value is below and above respectively, the no significant effect threshold, defined as 30% inhibition at 1 μg/mL at the time point indicated.) | 5.8 | 15.3 | 39
COc1ccc(-n2nc(C(C)(C)C)cc2NC(=O)Nc2ccc(Oc3ccnc(Nc4ccc5c(cnn5C)c4)n3)c3ccccc23)cc1 [Example 41, 1-(3-(tert-butyl)-1-(4-methoxyphenyl)-1H-pyrazol-5-yl)-3-(4-((2-((1-methyl-1H-indazol-5-yl)amino)pyrimidin-4-yl)oxy)naphthalen-1-yl)urea] | 16 | 1.9 | 128 | > 15300 | +ve (−ve and +ve indicate that the value is below and above respectively, the no significant effect threshold, defined as 30% inhibition at 1 μg/mL at the time point indicated.) | −ve (−ve and +ve indicate that the value is below and above respectively, the no significant effect threshold, defined as 30% inhibition at 1 μg/mL at the time point indicated.) | 1.6 | 123 | 81
COc1ccc(-n2nc(C(C)(C)C)cc2NC(=O)Nc2ccc(Oc3ccnc(Nc4ccc5c(cnn5CCN5CCOCC5)c4)n3)c3ccccc23)cc1 [Example 43, 1-(3-(tert-butyl)-1-(4-methoxyphenyl)-1H-pyrazol-5-yl)-3-(4-((2-((1-(2-morpholinoethyl)-1H-indazol-5-yl)amino)pyrimidin-4-yl)oxy)naphthalen-1-yl)urea] | 2 | 2.4 | 15 | 485 | −ve (−ve and +ve indicate that the value is below and above respectively, the no significant effect threshold, defined as 30% inhibition at 1 μg/mL at the time point indicated.) | −ve (−ve and +ve indicate that the value is below and above respectively, the no significant effect threshold, defined as 30% inhibition at 1 μg/mL at the time point indicated.) | 1.3 | 1.8 | 21
COc1ccc(-n2nc(C(C)C)cc2NC(=O)Nc2ccc(Oc3ccnc(Nc4ccc5[nH]nc(OCCN6CCOCC6)c5c4)n3)c3ccccc23)cc1 [Example 44, 1-(3-isopropyl-1-(4-methoxyphenyl)-1H-pyrazol-5-yl)-3-(4-((2-((3-(2-morpholinoethoxy)-1H-indazol-5-yl)amino)pyrimidin-4-yl)oxy)naphthalen-1-yl)urea] | 2 | 1.4 | 5 | 203 | −ve (−ve and +ve indicate that the value is below and above respectively, the no significant effect threshold, defined as 30% inhibition at 1 μg/mL at the time point indicated.) | −ve (−ve and +ve indicate that the value is below and above respectively, the no significant effect threshold, defined as 30% inhibition at 1 μg/mL at the time point indicated.) | 0.4 | 0.8 | 2
COc1ccc(-n2nc(C(C)(C)C)cc2NC(=O)Nc2ccc(Oc3ccnc(Nc4ccc5[nH]nc(OCCN6CCOCC6)c5c4)n3)c3ccccc23)cc1 [Example 45, 1-(3-(tert-butyl)-1-(4-methoxyphenyl)-1H-pyrazol-5-yl)-3-(4-((2-((3-(2-morpholinoethoxy)-1H-indazol-5-yl)amino)pyrimidin-4-yl)oxy)naphthalen-1-yl)urea] | 5 | 1.2 | 17 | 407 | −ve (−ve and +ve indicate that the value is below and above respectively, the no significant effect threshold, defined as 30% inhibition at 1 μg/mL at the time point indicated.) | −ve (−ve and +ve indicate that the value is below and above respectively, the no significant effect threshold, defined as 30% inhibition at 1 μg/mL at the time point indicated.) | 0.9 | 1.6 | 3
COc1ccc(-n2nc(C(C)C)cc2NC(=O)Nc2ccc(Oc3ccnc(Nc4ccc5[nH]nc(C(=O)N(C)C)c5c4)n3)c3ccccc23)cc1 [Example 46, 5-((4-((4-(3-(3-isopropyl-1-(4-methoxyphenyl)-1H-pyrazol-5-yl)ureido)naphthalen-1-yl)oxy)pyrimidin-2-yl)amino)-N,N-dimethyl-1H-indazole-3-carboxamide] | < 1 | 2.3 | 12 | 908 | −ve (−ve and +ve indicate that the value is below and above respectively, the no significant effect threshold, defined as 30% inhibition at 1 μg/mL at the time point indicated.) | −ve (−ve and +ve indicate that the value is below and above respectively, the no significant effect threshold, defined as 30% inhibition at 1 μg/mL at the time point indicated.) | 1.8 | 21.1 | 2
COc1ccc(-n2nc(C(C)(C)C)cc2NC(=O)Nc2ccc(Oc3ccnc(Nc4ccc5[nH]nc(C(=O)N(C)C)c5c4)n3)c3ccccc23)cc1 [Example 47, 5-((4-((4-(3-(3-(tert-butyl)-1-(4-methoxyphenyl)-1H-pyrazol-5-yl)ureido)naphthalen-1-yl)oxy)pyrimidin-2-yl)amino)-N,N-dimethyl-1H-indazole-3-carboxamide] | < 1 | 0.5 | 32 | 472 | −ve (−ve and +ve indicate that the value is below and above respectively, the no significant effect threshold, defined as 30% inhibition at 1 μg/mL at the time point indicated.) | −ve (−ve and +ve indicate that the value is below and above respectively, the no significant effect threshold, defined as 30% inhibition at 1 μg/mL at the time point indicated.) | 0.9 | 3.3 | 5
